Some test systems named below: OVCAR-8; OVCAR-5; Malme-3M; SNB-75; HCT-116; UO-31; 786-0; RXF 393; UACC-257; T47D; SK-MEL-2; SF-295; OVCAR-4; HCT-15; HL-60; TK-10; NCI-H226; SF-539; M14; NCI-H460.
Experiment in all cases: NCI anticancer screen, dose series, 48 h

Molecules are shown by their SMILES.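 Five concentrations, 48 hours, 96-well plates. Abbreviation: GI50, concentration required for 50% inhibition of growth.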 Calls of active or inactive are those of the source. Cut-off read from the data, not from the text of the source: active = GI50 up to about 1.1 µM and inactive = higher.

`CCCCCCCC/C=C\CCCCCCCCNc1ccn(C2OC(COP(=O)(O)OC3CC(n4cc(F)c(=O)[nH]c4=O)OC3CO)C(O)C2O)c(=O)n1` (centres undefined): the GI50 was 0.329 µM (active) in the test on OVCAR-8; > 100 µM (inactive) in the test on OVCAR-5; 13.2 µM (inactive) in the test with Malme-3M; 1.7 µM (inactive) with SNB-75; 0.329 µM (active) in the test on HCT-116; 0.198 µM (active) in the test on UO-31. In addition, the GI50 in the test with 786-0 is 0.195 µM (active); in the test with RXF 393 it was 9.62 µM (inactive); with UACC-257 it was > 37.7 µM (inactive); with T47D it was 36.3 µM (inactive); with SK-MEL-2 it was > 100 µM (inactive); in the test with SF-295, 0.638 µM (active). Further, the GI50 in the test with OVCAR-4 is > 91.8 µM (inactive); with HCT-15, 2.48 µM; with HL-60, 1.25 µM (inactive); in the test on TK-10, > 100 µM (inactive); with NCI-H226, > 28.4 µM (inactive); in the test with SF-539 it was < 0.0484 µM (active). Moreover, in the test on M14, the GI50 is 0.315 µM (active).

For `COc1ccc(N2C(=O)C3c4[nH]c5ccc(OCc6ccccc6)cc5c4C4CCC(C(C)(C)C)CC4C3C2=O)cc1` (centres undefined), the GI50 in the test on OVCAR-8 was 46.3 µM (inactive); in the test with OVCAR-5, > 100 µM (inactive); with Malme-3M it was 25.7 µM (inactive); with HCT-116, 42.4 µM (inactive); in the test with 786-0, 27.9 µM (inactive); in the test on RXF 393 it was > 100 µM (inactive). In addition, the GI50 in the test on UACC-257 was > 100 µM (inactive); in the test on T47D, 17.5 µM (inactive); in the test with SK-MEL-2, > 100 µM (inactive); with SF-295 it was > 100 µM (inactive); with OVCAR-4, 29.8 µM (inactive); in the test on NCI-H460 it was > 100 µM (inactive). The GI50 was more than 100 µM in the test with HCT-15; > 100 µM (inactive) with HL-60; 54.5 µM (inactive) with TK-10; > 100 µM (inactive) with NCI-H226; 46 µM (inactive) with SF-539; 78.7 µM (inactive) with M14.

For `CC(=O)Oc1ccn2nc(C)c(Br)c2c1`, the GI50 is > 64.4 µM (inactive) in the test with OVCAR-8; > 100 µM (inactive) with OVCAR-5; 64.1 µM (inactive) with Malme-3M; > 44.1 µM (inactive) with SNB-75; > 100 µM (inactive) in the test with HCT-116; > 100 µM (inactive) with 786-0. For the same compound, the GI50 in the test on RXF 393 was 65.3 µM (inactive); with UACC-257, 36.2 µM (inactive); in the test with T47D, 99.1 µM (inactive); in the test on SK-MEL-2, > 54 µM (inactive); with SF-295, > 100 µM (inactive); with OVCAR-4 it was > 100 µM (inactive). In addition, the GI50 with NCI-H460 was 98.2 µM (inactive); in the test with HCT-15, 65.2 µM; with HL-60, 25.9 µM (inactive); in the test with TK-10, > 100 µM (inactive); with NCI-H226, > 100 µM (inactive); with SF-539, > 100 µM (inactive). Besides, the GI50 in the test with M14 was > 100 µM (inactive).

For the compound `CCOC(=O)CCC(C(=O)OCC)n1nc2ccc(Nc3c(C)[n+]([O-])c4ccc(Cl)cc4[n+]3[O-])cc2n1` (centres undefined), the GI50 was 21.5 µM (inactive) in the test on OVCAR-8; 30.9 µM (inactive) in the test with OVCAR-5; 30.1 µM (inactive) in the test with Malme-3M; 20.6 µM (inactive) in the test on HCT-116; 15.5 µM (inactive) with UO-31; 16.5 µM (inactive) in the test with 786-0. Also, the GI50 is 13 µM (inactive) in the test with RXF 393; 24.5 µM (inactive) with UACC-257; 21.7 µM (inactive) in the test on T47D; 20 µM (inactive) in the test with SK-MEL-2; 16.8 µM (inactive) in the test with SF-295; 28.8 µM (inactive) in the test on OVCAR-4. Further, the GI50 in the test with NCI-H460 is 17 µM (inactive); with HCT-15, 17.6 µM; in the test with HL-60, 38.2 µM (inactive); with TK-10, 28.9 µM (inactive); in the test with NCI-H226, 20.3 µM (inactive); in the test on SF-539 it was 20.7 µM (inactive). For the same compound, the GI50 with M14 is 24.1 µM (inactive).

As for `CN1CCN(c2ccc3nc(C4=C(O)C(=O)c5c(nc(CCl)n5C)C4=O)[nH]c3n2)CC1`, the GI50 in the test on OVCAR-8 is 8.05 µM (inactive); in the test on OVCAR-5, 14.2 µM (inactive); in the test on Malme-3M it was 3.66 µM (inactive); in the test on SNB-75, 3.72 µM (inactive); with HCT-116, 8.85 µM (inactive); in the test with UO-31, 2.47 µM (inactive). Moreover, the GI50 is 8.61 µM (inactive) in the test on 786-0; 2.73 µM (inactive) in the test with RXF 393; 12.4 µM (inactive) with UACC-257; 0.796 µM (active) in the test on T47D; 10 µM (inactive) in the test on SK-MEL-2; 16.7 µM (inactive) in the test with SF-295. The GI50 with OVCAR-4 was 15.7 µM (inactive); in the test with NCI-H460 it was 20.2 µM (inactive); in the test with HCT-15, 38 µM; with HL-60, > 50 µM (inactive); in the test with NCI-H226, 14.7 µM (inactive); with SF-539, > 50 µM (inactive). The GI50 with M14 is 9.4 µM (inactive).

Take `OC1(c2ccccc2)CSc2ncnn21` (centres undefined): the GI50 with OVCAR-8, in the test on Malme-3M, in the test on SNB-75, with HCT-116, with UO-31 and in the test on 786-0 was > 100 µM (inactive) in each case. For the same compound, the GI50 in the test with RXF 393, with UACC-257, with T47D, in the test on SK-MEL-2, with SF-295 and in the test with OVCAR-4 was > 100 µM (inactive) in each case. The GI50 was > 100 µM (inactive) in the test on NCI-H460; more than 100 µM with HCT-15; > 100 µM (inactive) in the test on HL-60; > 100 µM (inactive) with TK-10; > 100 µM (inactive) in the test on NCI-H226; > 100 µM (inactive) in the test with SF-539. In addition, the GI50 with M14 was > 100 µM (inactive).

`c1ccc([P+](c2ccccc2)(c2ccccc2)C2c3ccccc3-c3ccccc32)cc1`: the GI50 is 2.81 µM (inactive) in the test with OVCAR-8; 2.59 µM (inactive) with OVCAR-5; 2.35 µM (inactive) with Malme-3M; 2.45 µM (inactive) in the test with SNB-75; 0.473 µM (active) in the test with HCT-116; 2.67 µM (inactive) in the test with UO-31. In addition, the GI50 with 786-0 was 3.09 µM (inactive); in the test with RXF 393, 1.86 µM (inactive); in the test on UACC-257 it was 2.31 µM (inactive); in the test on T47D, 2.71 µM (inactive); in the test with SK-MEL-2 it was 1.71 µM (inactive); with SF-295, 1.75 µM (inactive). Moreover, the GI50 is 1.83 µM (inactive) in the test with NCI-H460; 3.01 µM with HCT-15; 1.16 µM (inactive) in the test with HL-60; 2.53 µM (inactive) in the test on TK-10; 1.95 µM (inactive) in the test on NCI-H226; 2.75 µM (inactive) with SF-539. For the same compound, in the test with M14, the GI50 is 3.14 µM (inactive).

As to `C(=C/c1nnnn1-c1ccccc1)/Nc1ccccc1`, the GI50 with OVCAR-8 is 29.5 µM (inactive); in the test on OVCAR-5 it was 24.8 µM (inactive); with Malme-3M, 31.4 µM (inactive); in the test with SNB-75, 27.5 µM (inactive); in the test with HCT-116, 31.9 µM (inactive); with UO-31 it was 20.6 µM (inactive). The GI50 in the test on 786-0 was 39.2 µM (inactive); with RXF 393 it was 53 µM (inactive); in the test on UACC-257 it was 36.5 µM (inactive); with T47D, 29.6 µM (inactive); with SK-MEL-2 it was 2.64 µM (inactive); with SF-295, 26.2 µM (inactive). For the same compound, the GI50 was 49.8 µM (inactive) in the test with NCI-H460; 21.5 µM in the test on HCT-15; 41.2 µM (inactive) with HL-60; 34.4 µM (inactive) in the test with TK-10; 19.1 µM (inactive) in the test on NCI-H226; 23.3 µM (inactive) with SF-539. In addition, the GI50 with M14 is 26.1 µM (inactive).

With `CC1=C(C(=O)OCCO[N+](=O)[O-])C(c2ccccc2[N+](=O)[O-])C(C(=O)OC(C)C)=C(C)N1` (centres undefined), the GI50 is 22.5 µM (inactive) in the test with OVCAR-8; 14.9 µM (inactive) with OVCAR-5; 17.3 µM (inactive) with Malme-3M; 15.4 µM (inactive) with HCT-116; 13.2 µM (inactive) in the test with UO-31; 16.6 µM (inactive) with 786-0. Further, the GI50 in the test with RXF 393 was 14.3 µM (inactive); in the test on UACC-257, 15.3 µM (inactive); with T47D it was 13 µM (inactive); in the test on SK-MEL-2, 15.6 µM (inactive); in the test with SF-295, 15.7 µM (inactive); in the test with OVCAR-4, 18 µM (inactive). The GI50 in the test with NCI-H460 was 15.5 µM (inactive); in the test on HCT-15, 16.6 µM; in the test with HL-60, 39.3 µM (inactive); in the test with TK-10 it was 21.8 µM (inactive); in the test with NCI-H226, 14 µM (inactive); with SF-539 it was 17.7 µM (inactive). For the same compound, the GI50 in the test on M14 was 15.8 µM (inactive).

Consider `CC(C)[Si](OC1=C(c2ccccc2)C(NC(=O)/C=C/c2ccc([N+](=O)[O-])cc2)CCC1)(C(C)C)C(C)C` (centres undefined), for which the GI50 in the test on OVCAR-8, with OVCAR-5, in the test with Malme-3M, in the test on SNB-75, in the test with HCT-116 and with UO-31 was > 100 µM (inactive) throughout. The GI50 with 786-0, with RXF 393, in the test on UACC-257, in the test with T47D, in the test on SK-MEL-2 and in the test on SF-295 was > 100 µM (inactive) each time. For the same compound, the GI50 with NCI-H460 was > 100 µM (inactive); with HCT-15 it was more than 100 µM; in the test on HL-60, > 100 µM (inactive); with TK-10, > 100 µM (inactive); in the test on NCI-H226, > 100 µM (inactive); in the test on SF-539, > 100 µM (inactive). The GI50 in the test on M14 is > 100 µM (inactive).

These data come from ChEMBL document CHEMBL1201862, “PubChem BioAssay data set” (2004).
